One may read the ED50 as the dose that gives a 50% effect, or the effect in half of the subjects. Read a high ED50 as weaker potency. As usually defined, the MIC is the lowest concentration that inhibits growth of the organism.

The source of these data is patent EP3898610B1, “NOVEL AZA-HEXAPHENE ANTIBIOTIC COMPOUNDS” (Fondazione Istituto Insubrico di Ricerca per la Vita, priority 2018, dated 2020).

Series [1] in a line: Stability as a function of pH. Format: physicochemical. The conditions noted are these: basic pH. The protocol: Solubility of compound 1 (103/33 F-710) was poor in most low to medium- polarity organic solvents, as well as in water from acidic to neutral pH; it was more soluble at basic pH and stable up to pH 8-9, while in alcohols it ranged between 5-10 mg/ml. […] Some crystallizations trials were performed on compound 1 (103/33 F-710) in order to obtain suitable crystals for the X-ray structural characterization.

Series [2] deals with Staphylococcus aureus Smith 819 ATCC 19636. The series is described as follows: Murine septicemia model. Format: in vivo. Conditions: ATCC19636, intravenous administrations. From the text:
Effectiveness. […] This level of protection was observed after intravenous administrations.

In another series the test system is human erythrocytes. Kind of series: Hemolytic activity. Format: cell-based.
Series [3] concerns VA801801 L. monocytogenes. Kind of series: MIC, broth microdilution (CLSI). Conditions: Listeria monocytogenes, 35°C, 18-24 hours. Format: cell-based. The protocol: (§1) Antibacterial activity. The antimicrobial activity of the antibiotic 103/33-F710 was determined by the broth microdilution method according to the procedures published by the Clinical and Laboratory Standards Institute (CLSI), formerly the National Committee for Clinical Laboratory Standards (NCCLS) (document M07-A9). Microorganisms were grown in either cation-adjusted Mueller Hinton Broth (Staphylococci, Enterococci, Moraxella catarrhalis, Escherichia coli), Todd Hewitt medium (Streptococci) or RPMI 1640 medium for Candida albicans on 96-well microtiter plates. Each bacterial strain was inoculated with 2-5×10^5 CFU/ml, Candida albicans with 10^4 CFU/ml. Cultures were incubated at 35°C in air. After 18-24 hours visual readings were performed and MICs (Minimal Inhibitory Concentrations) determined. The effect of 30% bovine serum was determined under the same experimental conditions. The strains used were clinical isolates or strains from American Type Culture Collection (ATCC). The antibiotic 103/33-F710 was dissolved in DMSO to obtain a 1000 µg/ml stock solution, and subsequently diluted in water to obtain working solution. Table 5: Antimicrobial activity reported as MIC (µg/ml) of ID103/33-F710
(In general: Broth dilution looks for growth in wells or tubes with falling amounts of substance.)

For another series, the system named is VA827901 B. cereus. Kind of series: MIC, broth microdilution (CLSI). Conditions: Bacillus cereus, 35°C, 18-24 hours. It is filed as cell-based. The protocol: as §1
The subject of another series is VA645601 B. clausii. The series is described as follows: MIC, broth microdilution (CLSI). It is filed as cell-based. Conditions: Shouchella clausii, 35°C, 18-24 hours. The protocol:
as §1

The test system of a further series is L1400 S. aureus HA-MRSA. Kind of series: MIC, broth microdilution (CLSI). It is filed as cell-based. Conditions: Staphylococcus aureus; L1400 S. aureus HA-MRSA; cation-adjusted Mueller Hinton Broth, 35°C, 18-24 hours; read-out: MIC. How it is done: (§2) Antibacterial activity. […] Each bacterial strain was inoculated with 2-5×10^5 CFU/ml, Candida albicans with 10^4 CFU/ml. Cultures were incubated at 35°C in air. After 18-24 hours visual readings were performed and MICs (Minimal Inhibitory Concentrations) determined. The effect of 30% bovine serum was determined under the same experimental conditions. The strains used were clinical isolates or strains from American Type Culture Collection (ATCC).

The next series relates to L559 E. faecalis. The series is described as follows: MIC, broth microdilution (CLSI). It is filed as cell-based. The conditions noted are these: Enterococcus faecalis; L559 E. faecalis; cation-adjusted Mueller Hinton Broth, 35°C, 18-24 hours; read-out: MIC. The protocol:
as §2

The next series deals with L819 S. aureus Smith. Kind of series: MIC, broth microdilution (CLSI). It is filed as cell-based. Conditions: Staphylococcus aureus; L819 S. aureus Smith; cation-adjusted Mueller Hinton Broth, 35°C, 18-24 hours; read-out: MIC. The protocol:
as §2

The next series concerns L47 E. coli. The series is described as follows: MIC, broth microdilution (CLSI). Format: cell-based. The conditions noted are these: Escherichia coli; L47 E. coli; cation-adjusted Mueller Hinton Broth, 35°C, 18-24 hours; read-out: MIC. How it is done:
as §2

Values after ≈ are worked out from the molar mass of the structure shown.

In the case of `COc1c(OC)c2c(=O)c3cc(C)n(C(CC4CN(C)C(=N)N4)C(=O)O)c(=O)c3c(=O)c2c2cc3c(=O)c4cc(O)cc(O)c4c(=O)c3c(OC)c12` (stereo not shown) [compound 1, 2-(10,12-Dihydroxy-6,7,8-trimethoxy-3-methyl-1,5,9,14,16-pentaoxo-5,9,14,16-tetrahydro-1H-2-aza-hexaphen-2-yl)-3-(2-imino-1-methyl-imidazolidin-4-yl)-propionic acid], the “stable up to pH” value in series [1] is 8-9. Moreover, in series [2], it took a dose of 15 mg/kg to reach the 50% effect level (ED50). The hemolytic activity entry in the series on human erythrocytes is recorded as “no hemolytic activity”. Moreover, the MIC in series [3] worked out at 0.06 µg/mL (≈ 0.0844 µM); against VA827901 B. cereus, 0.06 µg/mL (≈ 0.0844 µM); in the series with VA645601 B. clausii, 0.125 µg/mL (≈ 0.176 µM); with L1400 S. aureus HA-MRSA it was 0.03 µg/mL (≈ 0.0422 µM); with L559 E. faecalis, 0.03 µg/mL (≈ 0.0422 µM); in the series with L819 S. aureus Smith, 0.06 µg/mL (≈ 0.0844 µM). For the same compound, in the series on L47 E. coli, the minimal inhibitory concentration (MIC) was more than 256 µg/mL.
